Experiments:
[1] = FTIR spectroscopy in transmission mode, amide-I spectra of protein A with polypeptides; assay type: physicochemical; details: protein A with PlL and/or PdL, 1 mg mL^−1 each, D2O, 0.15M NaCl
Experimental: FTIR Spectroscopy in transmission mode. Transmission spectra were measured on an EQUINOX 55 spectrophotometer (Bruker, Wissembourg, France) using a DTGS detector. Solutions were flown into a sample cell holder (SPECAC P/N 20510). Transmission spectra were measured by using CaF2 windows. Single channel spectra from 128 interferograms were calculated between 4000 and 400 cm^−1 with 2 cm^−1 resolution, using Blackman-Harris three-term apodization and Mertz phase correction with the standard Bruker OPUS/IR software (Version 3.0.4). Each sample (aqueous solution of polypeptide or protein A or both) was prepared at a concentration of 1 mg mL^−1 of each component, in a D2O, 0.15M NaCl (purchased from Prolabo) solution.

macrophages = assay: Confocal laser scanning microscopy of films in contact with cells (film degradation, contact with embedded protein A); assay type: cell-based, human; details: protein A embedded under 20 pairs of (PlGA/PlL) layers
Experimental: Confocal laser scanning microscopy. For the confocal laser scanning microscopy (CLSM) based investigations, the films were imaged in liquid conditions. CLSM observations were carried out with a Zeiss LSM 510 microscope using a ×40/1.4 oil immersion objective and with 0.4 μm z-section intervals. FITC fluorescence was detected after excitation at 488 nm, cutoff dichroic mirror 488 nm, and emission band pass filter 505-530 nm (green). Virtual vertical sections can be visualized, allowing the thickness of the film to be determined.
In previous experiments, the inventors could visualize the pseudopods developing through the multilayer down to the protein A layer.^[19] […] The progressive degradation of the (PlGA/PlL)n film as a function of contact time with the cells is visualized in FIGS. 2a-2c.
The inventors have seen that the film thickness depends upon the d/l ratio of the build-up polyelectrolyte solutions and in particular that it decreases when x increases from 0 up to 50%. On the other hand, for a given number of deposited pairs of layers, the biological activity decreases when x increases. The variations of the biological effects can thus not be attributed to changes of the film thickness with x. The biological effects can rather be explained by a continuous degradation and pseudopod development through the multilayered films^[19] as already found on (PlL/PlGA)n films. […]

human macrophages [2] = details: cited from earlier work
cells = details: replacement of PlL by PdL in the film; cited from earlier work
human macrophages [3] = assay: Stimulation assay: TNF-α production (ELISA) by macrophages seeded on PA-containing polyelectrolyte multilayers; assay type: cell-based
Text: Cell Culture. Whole blood samples were purchased at the “Etablissement Français du Sang” (EFS, Strasbourg, France). Peripheral mononuclear blood cells (PBMC) from healthy individuals, seronegative for […] and hepatitis B and C were isolated from buffy coat by Ficoll/Hypaque centrifugation and were washed twice in phosphate-buffered saline without Ca^2+/Mg^2+. Monocytes were isolated from whole-blood and separated by counter-current centrifugal elutriation of the peripheral mononuclear cells.^[40] Purity was measured by flow cytometry staining with fluorochrome antibodies (Becton Dickinson, PharMingen, San Diego, Calif.) to CD3 (T cells), CD19 (B cells), CD14 (monocytes) and CD45 (leukocytes). Monocytes were diluted at 1.5×10^6 cells mL^−1 in AIM lymphocytes SVF free medium with Glutamax, 100 U mL^−1 GM-CSF (PeproTech, Rocky Hill, USA). Culture medium was changed after 3 days of culture, and at day 5 macrophages were washed twice with RPMI at 37° C.
Polyelectrolyte multilayered film preparation. Polyelectrolyte multilayers were always prepared on glass coverslips (CML, France) pretreated for 15 min at 100° C. with 10^−2 M SDS and 0.12 N HCl, and then extensively rinsed with deionised water. Glass coverslips were deposited in 24-well plates (Nunc, Denmark). All the solutions (polyelectrolyte, PA and rinsing) used for the film constructions contained 0.15 M NaCl with a pH adjusted to 7.4. At this pH both polylysine and polyglutamic acid are almost fully charged, be they l or d enantiomers so that they should not form stereocomplexes in solution. The films were constructed with polyelectrolyte (resp. PA) solutions at 1 mg·mL^−1 (resp. 200 μg·mL^−1) of polyelectrolytes (resp. PA). The film construction was performed as follows: First a precursor film constituted by (PlL/PlGA)5-PlL was built. In each deposition step, the surface is brought in contact with the polyelectrolyte solution for 20 mins followed by another contact with the rinsing solution for 5 mins. This rinsing step is repeated 3 times before adsorption of the polyelectrolyte of opposite charge. After the buildup of the precursor film, PA was adsorbed on the positively charged PlL terminating the precursor film during an overnight contact with PA solution. This film was then rinsed and the additional (PL/PGA)n-PL film was built by using PL and PGA solutions containing (x/100) mg·mL^−1 of PdL (resp. PdGA) and (1-x/100) mg·mL^−1 of PlL (resp. PlGA). All the films were then sterilized for 10 mins by ultraviolet light (254 nm). Before use, the architectures were put in contact with 1 mL of RPMI without serum during 24 h. It is possible that when the films are brought in contact with the culture medium, their structure and thickness change, the structure of the multilayers being dependent on many different physico-chemical parameters.^[41-43] However, such changes cannot explain the different biological effects that are observed in this study. […] One can also notice that the films were built at room temperature whereas the experiments with cells were realized at 37° C.
Stimulation assays. Stimulation assays involving polyelectrolyte films were conducted by seeding 5×10^5 cells (macrophages) onto the PA-containing polyelectrolyte multilayers prepared on glass coverslips and placed into the wells of 24-well plates. TNF-α production by cells was measured by ELISA. TNF-α levels were detected by an enzyme immunoassay (Endogen Products, Woburn, Mass.). All experiments were repeated twice and were performed at 37° C.
For multilayer films containing embedded PA, the proteins were always adsorbed on a (PlL/PlGA)5-PlL precursor film in order to keep the adsorption process (in particular the amount of adsorbed proteins) unaffected by the d/l composition of the film. The multilayer with a given d/l composition was then further deposited on top of the (PlL/PlGA)5-PlL-PA architecture and is constituted by n additional pairs of layers. […]

For “PA: Staphylococcus aureus protein A, MW=42,000 Da, from Sigma; embedded in the multilayer films as model active ingredient”, the “Effect of polypeptide interaction on secondary structure of protein A (amide-I spectra)” value [1] is given as “do not affect the secondary structure of protein A”, the “Contact of macrophages with embedded protein A (CLSM)” value (macrophages) is given as “come into contact with protein A” and the “Cytokine expression on PA stimulation” value (human macrophages [2]) is given as “rapid expression of both the pro-inflammatory cytokine TNF-α and the anti-inflammatory cytokine IL-10”. The “Cellular communication with embedded PA” value (cells) was “prevents cellular communication with embedded PA”, the “TNF-α production (biological activity)” value (human macrophages [3]; d content between 10 and 20%, all embedding depths up to n=20, after 4 hours of contact) was “full activity” and the “TNF-α production (biological activity)” value (human macrophages [3]; d content between 10 and 20%, embedding depth exceeds 15 pairs of layers, after 4 hours of contact) was “reaches its full activity”. The “TNF-α production (biological response)” value (human macrophages [3]; d content between 10 and 20%, embedding depth exceeds 15 pairs of layers, initial 3 hours of contact) was “no biological response”, the “TNF-α production (biological activity), time course” value (human macrophages [3]; d content between 10 and 20%, embedding depths up to 5 pairs of layers) was “increases continuously in time, the plateau value being reached after 4 hours of contact” and the “TNF-α production (cellular response)” value (human macrophages [3]; n=0: PA adsorbed on top of the film, direct contact with cells, lasts at least up to 6 hours) was “rapid cellular response is observed already after one hour of contact”. The “TNF-α production (biological activity)” value (human macrophages [3]; x between 30 and 40%, PA embedded under 1 layer pair) was “gradually increases after 2 hours of contact”, the “TNF-α production (biological activity)” value (human macrophages [3]; x between 30 and 40%, embedded under 5 pairs of layers, after 6 hours of contact) was “fully active” and the “TNF-α production (biological activity)” value (human macrophages [3]; x between 30 and 40%, embedded under 5 pairs of layers, first 4 hours) was “totally suppressed”. The “TNF-α production (biological activity)” value (human macrophages [3]; x between 30 and 40%, embedded under 15 pairs of layers or more, first 6 hours of contact) was “no longer acts on cells” and the “TNF-α production (biological activity)” value (human macrophages [3]; x equals 50% or more of d enantiomer, PA embedded under a (PL/PGA/PL) trilayer) was “totally suppressed”.

From US20080171070A1, “Polyelectrolyte Multilayer Film, Preparation And Uses Thereof” (priority 2005, published 2008)
